Experimental data published in ChEMBL document CHEMBL1147388, “Three new cytotoxic metabolites from the marine sponge Plakortis halichondrioides” (J Nat Prod, 1993).
≈ marks a conversion by molar mass, not a printed value.

Test system: P388
Assay: Cytotoxicity against mouse P388 cells
Assay type: functional, cell-based

Row | Compound | IC50 [µg/mL]
1 | CC/C=C/C(CC)C/C(C)=C/C(O)(CC)CC(O)(/C=C/C(=O)O)CC (centres undefined) | 10 (≈ 28.4 µM)
2 | CC/C=C/C(CC)C/C(=C/C(O)(CC)CC(O)(/C=C/C(=O)O)CC)CC (centres undefined) | 10 (≈ 27.3 µM)
3 | CC/C=C/C(CC)CCCC1(CC)C[C@H](CC)[C@H](CC(=O)O)OO1 (relative stereo) | 0.5 (≈ 1.47 µM)
4 | CC/C=C/C(CC)CCCC1(CC)C[C@H](CC)[C@H](CC(=O)OC)OO1 (relative stereo) | 5 (≈ 14.1 µM)
